Patent US20060241026A1, “Novel cyclic peptides and use thereof as anti-microbial agents” (priority 2002, published 2006)
≈ marks a conversion by molar mass, not a printed value. Entries after “also recorded” stand apart in the source; their conditions may differ. Where two headings read alike, the source gives them in different places. Positions of bridges follow the written chain, without caps; N, C: chain ends. Residues, ends and D or L forms follow the SMILES beside them.

Experiments:
[1] = test system: Gram+ and Gram− bacteria and a filamentous fungus; assay: Antibiotic tests on Gram+ and Gram- bacteria and on a filamentous fungus, summary in words; type: cell-based; conditions: compared with the native molecule or the minimal loop
Description: (§1) The activity of the synthetic peptides was tested with respect to the Gram+ bacteria Mycrocossus luteus, Staphylococcus aureus, Staphylococcus epidermidis and Bacillus megaterium. The activities were determined according to the protocol described by HANCOCK et al. (http://www.interchg.ubc.ca/bobh/methods.htm)
(§2) The MIC was determined for each peptide by inhibition of growth in liquid medium. Doubling dilution of peptide was realized in the wells of a Microtest plate in a volume of 10 μl. The bacteria were grown in MUELLER HINTON BROTH (MHB, Difco) liquid medium. During the exponential growth phase, a solution with an optical density of 0.001 at 600 nm was produced, and 100 μl of this suspension were added to each well. The incubation lasted 24 h at 30° C., and the optical densities of each well were then measured at 600 nm. The value of the MIC corresponds to the first well for which the optical density had not changed.
(§3) The dishes were incubated for 24 h at 30° C. The value of the MBC corresponds to the lowest concentration of the peptide for which no colony developed.
(§4) The anti-fungal activity was determined by calculating the MIC in a growth inhibition assay for the shrimp parasite fungus Fusarium oxysporum, in liquid phase, according to the protocol described by FELHBAM et al. (J. Biol. Chem., 1994, 269:33159-63). Doubling dilutions of each peptide were realized in the wells of a Microtest plate in a volume of 10 μl. 90 μl of spores resuspended in potato dextrose broth medium (DIFCO) at a final concentration of 10^4 spores/ml were added to each well. The growth inhibition was measured after incubation for 24 h at 25° C. in the dark, by observation under an optical microscope and measurement of the increase in OD at 600 nm. The value of the MIC corresponds to the first well for which the optical density had not increased.
Using the 3-D structure of the native molecule as a basis, said molecule was fractionated into 17 elements (table I). All these fragments were synthesized and their activities were assayed using antibiotic tests on Gram+ and Gram− bacteria and on a filamentous fungus. The minimum inhibitory concentration (MIC) and minimum […] concentration (MBC) of each peptide were thus determined and were compared with those of the native molecule.

[2] = test system: Fusarium oxysporum; type: cell-based
Description: as §4

[3] = test system: Micrococcus luteus; type: cell-based
Description: as §1, §2, §3

[4] = test system: Bacillus megaterium; type: cell-based
Description: as §1, §2, §3

[5] = test system: Staphylococcus aureus; type: cell-based
Description: as §1, §2, §3

[6] = test system: Staphylococcus epidermidis; type: cell-based
Description: as §1, §2, §3

[7] = test system: Gram+ bacteria; conditions: cited from earlier work

Fusarium oxysporum MIC ([2]; 24 h) [µM] | Micrococcus luteus MIC [3] [µM] | MIC on M leuteus ([3]; 24 h) [µM] | Bacillus megaterium MIC ([4]; Bacillus) [µM] | Staphylococcus aureus MIC [5] [µM] | Staphylococcus epidermidis MIC [6] [µM] | Molecule | anti-microbial activity (in words) [1] | Fusarium oxysporum MIC ([2]; Table II, 24 h at 25° C.) [µM] | Micrococcus luteus MBC ([3]; Table II) [µM] | Micrococcus luteus MIC ([3]; Table II) [µM] | Bacillus megaterium MBC ([4]; Table II) [µM] | Bacillus megaterium MIC ([4]; Table II) [µM] | Staphylococcus aureus MBC ([5]; Table II) [µM] | Staphylococcus aureus MIC ([5]; Table II) [µM] | Staphylococcus epidermidis MBC ([6]; Table II) [µM] | Staphylococcus epidermidis MIC ([6]; Table II) [µM] | Micrococcus luteus MBC [3] [µM] | Bacillus megaterium MBC ([4]; Bacillus) [µM] | Staphylococcus aureus MBC [5] [µM] | Staphylococcus epidermidis MBC [6] [µM] | further results
– | – | – | – | – | – | CC(C)C[C@@H]1NC(=O)[C@H](CCCNC(=N)N)NC(=O)[C@H](Cc2c[nH]cn2)NC(=O)[C@H](Cc2c[nH]c3ccccc23)NC(=O)CNC(=O)CNC(=O)[C@@H](N)CSSC[C@@H](C(=O)O)NC(=O)[C@H](CCCNC(=N)N)NC1=O [SEQ ID NO:1, C^(S)GGWHRLRC^(S)] (H-CGGWHRLRC-OH; disulfide 1-9; N-terminus and C-terminus assumed) | has anti-bacterial activity | 28 | 50 | 24 | 50 | 26 | 75 | 25 | 50 | 17 | – | – | – | – | MIC on M leuteus ([3]; Table 1, growth inhibition in liquid medium, 24 h at 30° C.): 33 µM (≈ 35.8 µg/mL)
43 | 14 | 13 (≈ 14.2 µg/mL) | 24 | 15 | 20 | N=C(N)NCCC[C@@H]1NC(=O)[C@H](CCCCN)NC(=O)[C@H](CCCNC(=N)N)NC(=O)[C@H](CCCCN)NC(=O)[C@H](Cc2c[nH]c3ccccc23)NC(=O)CNC(=O)CNC(=O)[C@@H](N)CSSC[C@@H](C(=O)O)NC1=O [SEQ ID NO:2, C^(S)GGWKRKRC^(S)] (H-CGGWKRKRC-OH; disulfide 1-9; N-terminus and C-terminus assumed) | increases the activity; also recorded: antibacterial potency greater than that of the cyclic peptide of sequence SEQ ID NO:1 | – | – | – | – | – | – | – | – | – | >75 | >75 | 33 | >75 | –
14 | 29 | 32 (≈ 67.2 µg/mL) | 25 | 19 | 24 | CC(C)C[C@@H]1NC(=O)[C@H](CCCNC(=N)N)NC(=O)[C@H](Cc2c[nH]cn2)NC(=O)[C@H](Cc2c[nH]c3ccccc23)NC(=O)CNC(=O)CNC(=O)[C@@H](NC(=O)[C@H](Cc2ccc(O)cc2)NC(=O)CNC(=O)CNC(=O)[C@@H](N)CO)CSSC[C@@H](C(=O)N[C@H](C(=O)N[C@@H](CO)C(=O)N[C@@H](Cc2ccc(O)cc2)C(=O)N[C@@H](CCCNC(=N)N)C(=O)N[C@@H](CO)C(=O)NCC(=O)O)[C@@H](C)O)NC(=O)[C@H](CCCNC(=N)N)NC1=O [SEQ ID NO:6, SGGYC^(S)GGWHRLRC^(S)TSYRSG] (H-SGGYCGGWHRLRCTSYRSG-OH; disulfide 5-13; N-terminus and C-terminus assumed) | – | – | – | – | – | – | – | – | – | – | >75 | >75 | 75 | >75 | –
– | – | – | – | – | – | GFGCPNNYQCHRHCKSIPGRCGGYCGGWHRLRCTCYRCG (listed as Mytilus galloprovincialis) [SEQ ID NO:3, Mytilus galloprovincialis defensin, small cationic protein of 4 kDa comprising 39 amino acids; native molecule, reference compound] | – | 5 | 1.5 | 0.6 | 1.5 | 0.8 | 1.2 | 0.6 | 6.2 | 3.1 | – | – | – | – | anti-bacterial and anti-fungal activity of MGD1 (in words) [7]: has anti-bacterial activity against Gram+ bacteria and anti-fungal activity; MBC on M leuteus ([3]; Table 1, plating on MHA, 24 h at 30° C.): 2 µM
